# In patent US20230114143A1, “METHOD OF TREATING THE SCALP” (Conopco, Inc., d/b/a UNILEVER, priority 2020, published 2023):
# Structures can show the parent of a compound that is named as a salt.
# What was measured:
# [1] = tested on: differentiated keratinocytes; test: Microarray gene expression in differentiated primary human epidermal keratinocytes dosed with piroctone olamine; format: cell-based; conditions: 7.5 µM, 24 hours
# Description: Primary human epidermal keratinocytes were obtained from Lonza. Cells were cultured in monolayer in KGM-Gold medium. For the experiment keratinocytes were differentiated by incubating for five days in KGM-Gold medium supplemented with 1.2 mM calcium chloride. Piroctone olamine was supplied by Sigma. Differentiated keratinocyte cultures were dosed with 7.5 µM piroctone olamine and 0.1% ethanol (Group 1, n=4), or with 0.1% ethanol only (Group 2, n=4) and incubated for 24 hours. Cells were then lysed in RLT buffer and subjected to RNA extraction using Qiagen RNeasy Micro Kit according to manufacturer’s instructions. The levels of gene expression were determined using Agilent SurePrint G3 Human Gene Expression 8x60k v3 Microarrays in conjunction with Agilent SureHyb hybridisation and SureScan High-Resolution scanning technology, in accordance with manufacturer’s protocol. Microarray data processing and statistical analysis was carried out in Agilent GeneSpring GX14 software. To identify differentially expressed genes in piroctone olamine treated cultures (Group 1) compared to vehicle control cultures (Group 2), t-test was applied (p≤0.05) with or without Benjamini-Hochberg false discovery rate correction (FDR≤0.05).
# [2] = tested on: ex vivo human skin explants; test: RNA sequencing gene expression in NativeSkin ex vivo human skin explants treated topically with piroctone olamine; format: cell-based; conditions: 24 hours
# Description: Human ex vivo skin model production and piroctone olamine treatment were conducted by Genoskin (France). NativeSkin models of 15 mm diameter ex vivo human skin explants with silicon rings were produced from three donors and cultured in NativeSkin culture medium under 5% CO2 humidified atmosphere in 37° C. Skin explants were treated topically with 50 ul of solution containing 30 uM piroctone olamine in PBS with 1% ethanol (Group 1, n=3), or control PBS solution containing 1% ethanol (Group 2, n=3), and were incubated for 24 hours. Following one day of topical treatment, piroctone olamine and control solutions were removed using cotton swabs and each model was unmolded from silicon ring and re-punch at 12 mm diameter. Half of each skin biopsy was processed for RNA using OMNI-TH Rotor Stator tissue homogeniser and Qiagen RNeasy Fibrous Tissue RNA Mini Kit according to manufacturer’s instructions. RNA sequencing was used for gene expression analysis. Lexogen QuantSeq3′ FWD libraries were prepared from RNA samples and sequenced via single read (1x75 bp) performed using NextSeq 500/550 Mid-Output Kit on the NextSeq 500 Illumina platform. FASTQ data files were then uploaded to the BlueBee genomic platform and read-trimming, alignment, and read count were performed using QuantSeq data processing pipeline. Differential gene expression analysis for Group 1/Group 2 comparison was run in Bluebee genomic platform using QuantSeq DE pipeline (FDR corrected p≤0.05).
# [3] = vs 0.1% ethanol control, Comeodesmosome formation
# [4] = vs 0.1% ethanol control, Cornified envelop formation
# [5] = vs 0.1% ethanol control, Tight junction formation
# [6] = 30 uM topical in PBS with 1% ethanol, vs control, Tight junction formation
smiles,measurement,setting,value
"Cc1cc(CC(C)CC(C)(C)C)n(O)c(=O)c1 (stereo not shown) [piroctone olamine, 1-hydroxy-4-methyl-6-(2,4,4-trimethylpentyl)-2(1H) pyridinone monoethanolamine salt]",gene expression of epidermal barrier biomarkers compared to control (in words),[1]; differentiated keratinocytes,clear increase in gene expression
same,"Fold Change (Group ⅟Group 2) gene expression, Desmocolin 2 (DSC2)",[1]; [3],2.49
same,"Fold Change (Group ⅟Group 2) gene expression, Desmoglein 4 (DSG4)",[1]; [3],2.44
same,"Fold Change (Group ⅟Group 2) gene expression, Plakophilin 1 (PKP1)",[1]; [3],1.75
same,"Fold Change (Group ⅟Group 2) gene expression, Comeodesmosin (CDSN)","[1]; vs 0.1% ethanol control, Comeodesmosome formation, not significant",1.20
same,"Fold Change (Group ⅟Group 2) gene expression, Involucrin (IVL)",[1]; [4],1.40
same,"Fold Change (Group ⅟Group 2) gene expression, Late cornified envelope 3A (LCE3A)",[1]; [4],2.58
same,"Fold Change (Group ⅟Group 2) gene expression, Late cornified envelope 3B (LCE3B)",[1]; [4],1.67
same,"Fold Change (Group ⅟Group 2) gene expression, Late cornified envelope 3C (LCE3C)",[1]; [4],2.71
same,"Fold Change (Group ⅟Group 2) gene expression, Small proline-rich protein 2D (SPRR2D)",[1]; [4],1.52
same,"Fold Change (Group ⅟Group 2) gene expression, Claudin 4 (CLDN4)",[1]; [5],1.76
same,"Fold Change (Group ⅟Group 2) gene expression, Claudin 7 (CLDN7)",[1]; [5],1.65
same,"Fold Change (Group ⅟Group 2) gene expression, Claudin 17 (CLDN17)",[1]; [5],2.99
same,"Fold Change (Group ⅟Group 2) gene expression, Claudin 25 (CLDN25)",[1]; [5],2.05
same,"Fold Change (Group ⅟Group 2) gene expression, Zona Occludens 1 (ZO1 (TJP1))","[1]; vs 0.1% ethanol control, Tight junction formation, not significant",1.3
same,"Fold Change (Group 1/Group 2) gene expression, Involucrin (IVL)","[2]; 30 uM topical in PBS with 1% ethanol, vs control, Cornified envelop formation",2.7
same,"Fold Change (Group 1/Group 2) gene expression, Claudin 1 (CLDN 1)",[2]; [6],2.1
same,"Fold Change (Group 1/Group 2) gene expression, Zona Occludens 2 (ZO2 (TJP2))",[2]; [6],3.5
same,gene expression of epidermal barrier biomarkers compared to control (in words),"[2]; 30 uM topical, human skin explants",increase in gene expression
